Structures are written as SMILES. pKi: −log10 of the molar value.

Assay [1] has as its target T1, Carbonic anhydrase (Candida albicans (strain SC5314 / ATCC MYA-2876) (Yeast), UniProt Q5AJ71).
T1 sequence (Q5AJ71 whole entry): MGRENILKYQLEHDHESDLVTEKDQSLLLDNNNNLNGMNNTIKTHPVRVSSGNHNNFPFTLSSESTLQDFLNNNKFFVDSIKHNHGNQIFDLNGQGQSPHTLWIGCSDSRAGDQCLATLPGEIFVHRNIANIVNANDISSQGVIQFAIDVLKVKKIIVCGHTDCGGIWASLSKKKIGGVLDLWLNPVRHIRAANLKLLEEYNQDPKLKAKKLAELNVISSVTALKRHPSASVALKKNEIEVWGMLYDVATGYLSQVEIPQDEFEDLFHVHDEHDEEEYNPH
The assay is described as follows: Inhibition of recombinant Candida albicans beta carbonic anhydrase NCE103 expressed in Escherichia coli preincubated for 15 mins by stopped-flow CO2 hydration assay.

Assay [2] addresses T2, Carbonic anhydrase (Candida glabrata CBS 138, UniProt Q6FTL6).
T2 sequence (Q6FTL6 whole entry): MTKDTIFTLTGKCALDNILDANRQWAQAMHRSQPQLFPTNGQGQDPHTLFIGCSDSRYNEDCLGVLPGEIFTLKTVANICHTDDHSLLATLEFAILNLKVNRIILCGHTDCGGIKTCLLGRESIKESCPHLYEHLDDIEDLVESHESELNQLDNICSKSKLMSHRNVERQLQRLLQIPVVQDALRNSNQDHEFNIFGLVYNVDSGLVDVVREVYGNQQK
Put plainly: Inhibition of recombinant Candida glabrata beta carbonic anhydrase NCE103 expressed in Escherichia coli preincubated for 15 mins by stopped-flow CO2 hydration assay. Details: species or system Nakaseomyces glabratus.

The next assay has as its target Carbonic anhydrase 2 (Homo sapiens, UniProt P00918). The assay is described as follows: Inhibition of recombinant human carbonic anhydrase 2 expressed in Escherichia coli preincubated for 15 mins by stopped-flow CO2 hydration assay.
Another assay concerns the target Carbonic anhydrase 1 (Homo sapiens, UniProt P00915). Put plainly: Inhibition of recombinant human carbonic anhydrase 1 expressed in Escherichia coli preincubated for 15 mins by stopped-flow CO2 hydration assay.

Carbonic anhydrase 1, sequence (P00915 whole entry): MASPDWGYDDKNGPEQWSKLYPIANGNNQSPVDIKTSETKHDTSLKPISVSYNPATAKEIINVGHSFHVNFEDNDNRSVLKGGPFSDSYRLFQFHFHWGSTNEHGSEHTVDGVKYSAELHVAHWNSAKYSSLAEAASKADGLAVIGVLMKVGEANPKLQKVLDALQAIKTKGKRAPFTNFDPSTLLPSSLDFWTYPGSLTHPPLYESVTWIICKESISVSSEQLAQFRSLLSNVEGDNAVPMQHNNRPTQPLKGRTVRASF

Consider `NS(=O)(=O)c1ccccc1/N=C1\C(=O)Nc2ccc(Cl)cc21`, for which the figures for the pKi on Carbonic anhydrase [1] and at Carbonic anhydrase [2] were 7.18 and 7.23, respectively.
Consider `CN1C(=O)/C(=N\c2ccc(S(N)(=O)=O)cc2)c2cc(F)ccc21`, for which the negative-log Ki (pKi) on Carbonic anhydrase [1] is 7.10; at Carbonic anhydrase [2] it was 7.49.
Regarding `NS(=O)(=O)c1cccc(/N=C2\C(=O)Nc3ccc([N+](=O)[O-])cc32)c1`, the negative-log Ki (pKi) on Carbonic anhydrase [1] is 7.45; at Carbonic anhydrase [2], 7.64.
As for `NS(=O)(=O)c1cccc(/N=C2\C(=O)Nc3ccc(Cl)cc32)c1`, the figures for the pKi on Carbonic anhydrase [1] and on Carbonic anhydrase [2] were 7.26 and 7.30, respectively.
For `NS(=O)(=O)c1ccccc1/N=C1\C(=O)Nc2ccccc21`, in that order: 6.87 and 7.18.
Consider `NS(=O)(=O)c1cccc(/N=C2\C(=O)Nc3ccccc32)c1`, for which the negative logarithm of the Ki (pKi) was 7.01 on Carbonic anhydrase [1] and 7.07 on Carbonic anhydrase [2].
For `Cc1ccc2c(c1)/C(=N/c1cccc(S(N)(=O)=O)c1)C(=O)N2`, the figures for the negative-log Ki (pKi) on Carbonic anhydrase [1], on Carbonic anhydrase 2 and on Carbonic anhydrase [2] were 6.80, 6.25 and 7.34, respectively.
As to `NS(=O)(=O)c1cccc(/N=C2\C(=O)Nc3ccc(OC(F)(F)F)cc32)c1`, the pKi was 7.06 on Carbonic anhydrase [1] and 7.27 at Carbonic anhydrase [2].
The like results for `NS(=O)(=O)c1ccc(/N=C2\C(=O)Nc3ccc([N+](=O)[O-])cc32)cc1` were, in that order, 7.47 and 7.64.
As for `NS(=O)(=O)c1ccc(N=C2C(=O)Nc3ccccc32)cc1`, the pKi was 6.37 on Carbonic anhydrase 1, 7.06 on Carbonic anhydrase [1], 6.28 at Carbonic anhydrase 2 and 7.32 at Carbonic anhydrase [2].
On to `NS(=O)(=O)c1ccc(/N=C2\C(=O)Nc3ccc(F)cc32)cc1`, for which the negative-log Ki (pKi) on Carbonic anhydrase [1] is 7.07; on Carbonic anhydrase [2], 7.67.
`CN1C(=O)/C(=N\c2ccc(S(N)(=O)=O)cc2)c2cc(Br)ccc21`: the values for the pKi on Carbonic anhydrase [1] and on Carbonic anhydrase [2] were 6.81 and 7.43, respectively.
On to `CN1C(=O)/C(=N\c2ccc(S(N)(=O)=O)cc2)c2ccccc21`, for which the pKi on Carbonic anhydrase [1] was 7.12; on Carbonic anhydrase [2] it was 7.40.
Turning to `NS(=O)(=O)c1ccc(/N=C2\C(=O)Nc3ccc(Cl)cc32)cc1`, the results for the pKi at Carbonic anhydrase [1] and at Carbonic anhydrase [2] were 7.08 and 7.42, respectively.
Regarding `Cc1ccc2c(c1)/C(=N/c1ccc(S(N)(=O)=O)cc1)C(=O)N2`, the pKi was 6.89 on Carbonic anhydrase [1] and 7.53 on Carbonic anhydrase [2].
In the case of `CN1C(=O)/C(=N\c2ccc(S(N)(=O)=O)cc2)c2cc([N+](=O)[O-])ccc21`, the figures for the pKi at Carbonic anhydrase [1] and at Carbonic anhydrase [2] were 7.66 and 7.79, respectively.
The like results for `CN1C(=O)/C(=N\c2ccc(S(N)(=O)=O)cc2)c2cc(Cl)ccc21` were, in that order, 6.75 and 7.44.
For `NS(=O)(=O)c1ccccc1/N=C1\C(=O)Nc2ccc(F)cc21`, the figures for the pKi on Carbonic anhydrase [1] and at Carbonic anhydrase [2] were 7.04 and 7.26, respectively.
`NS(=O)(=O)c1ccc(/N=C2\C(=O)Nc3ccc(OC(F)(F)F)cc32)cc1`: the pKi was 7.27 at Carbonic anhydrase [1] and 7.35 on Carbonic anhydrase [2].
`Cc1ccc2c(c1)/C(=N/c1ccccc1S(N)(=O)=O)C(=O)N2`: the pKi on Carbonic anhydrase [1] is 6.86; on Carbonic anhydrase [2], 7.21.
For `NS(=O)(=O)c1cccc(/N=C2\C(=O)Nc3ccc(F)cc32)c1`, in that order: 7.21 and 7.35.
For `Cc1ccc2c(c1)/C(=N/c1ccc(S(N)(=O)=O)cc1)C(=O)N2C`, in that order: 7.08 and 7.45.
As to `NS(=O)(=O)c1ccccc1/N=C1\C(=O)Nc2ccc(OC(F)(F)F)cc21`, the values for the pKi on Carbonic anhydrase [1] and on Carbonic anhydrase [2] were 6.53 and 6.81, respectively.
